Measurements published in patent publication US9795139B2, “Molecules having pesticidal utility, and intermediates, compositions, and processes, related thereto” (priority 2015, dated 2017).
Where two headings read alike, the source gives them in different places.

Legend:
Assay type in all cases: in vivo
[1] = test system: Yellow Fever Mosquito (Aedes aegypti, AEDSAE); conditions: about 1 day-old larvae, 96-well plate from 4000 ppm DMSO master, 3 days at room temperature
Experimental: Certain molecules disclosed in this document were tested against YFM using procedures described in the following paragraph. In the reporting of the results, the “GPA & YFM Rating Table” was used (See Table Section).
Master plates containing 400 μg of a molecule dissolved in 100 μL of dimethyl sulfoxide (DMSO) (equivalent to a 4000 ppm solution) are used. A master plate of assembled molecules contains 15 μL per well. To this plate, 135 μL of a 90:10 water/acetone mixture is added to each well. A robot is programmed to dispense 15 μL aspirations from the master plate into an empty 96-well shallow plate (“daughter” plate). There are 6 reps (“daughter” plates) created per master. The created “daughter” plates are then immediately infested with YFM larvae.
The day before plates are to be treated, mosquito eggs are placed in Millipore water containing liver powder to begin hatching (4 g. into 400 mL). After the “daughter” plates are created using the robot, they are infested with 220 μL of the liver powder/larval mosquito mixture (about 1 day-old larvae). After plates are infested with mosquito larvae, a non-evaporative lid is used to cover the plate to reduce drying. Plates are held at room temperature for 3 days prior to grading. After 3 days, each well is observed and scored based on mortality. The results are indicated in the table entitled “Table ABC: Biological Results” (See Table Section).

[2] = test system: Beet Armyworm (Spodoptera exigua, LAPHEG); experiment: Bioassay on Beet Armyworm (BAW), 128-well diet tray assay; conditions: 168 h, read-out: BAW % Control (or Mortality) rating
Experimental: (§1) Certain molecules disclosed in this document were tested against BAW and CL using procedures described in the following examples. In the reporting of the results, the “BAW & CL Rating Table” was used (See Table Section).
Bioassays on BAW were conducted using a 128-well diet tray assay. One to five second instar BAW larvae were placed in each well (3 mL) of the diet tray that had been previously filled with approximately 1.5 mL of artificial diet to which 50 μg/cm^2 of the test molecule (dissolved in 50 μL of 90:10 acetone-water mixture) had been applied (to each of eight wells) and then allowed to dry. Trays were covered with a clear self-adhesive cover, vented to allow gas exchange, and held at 25° C., 14:10 light-dark for five to seven days. Percent mortality was recorded for the larvae in each well; activity in the eight wells was then averaged. The results are indicated in the table entitled “Table ABC: Biological Results” (See Table Section).

[3] = test system: Cabbage Looper (Trichoplusia ni, TRIPNI); experiment: Bioassay on Cabbage Looper (CL), 128-well diet tray assay; conditions: 168 h, read-out: CL % Control (or Mortality) rating
Experimental: as §1
Bioassays on CL were conducted using a 128-well diet tray assay. one to five second instar CL larvae were placed in each well (3 mL) of the diet tray that had been previously filled with 1 mL of artificial diet to which 50 μg/cm^2 of the test molecule (dissolved in 50 μL of 90:10 acetone-water mixture) had been applied (to each of eight wells) and then allowed to dry. Trays were covered with a clear self-adhesive cover, vented to allow gas exchange, and held at 25° C., 14:10 light-dark for five to seven days. Percent mortality was recorded for the larvae in each well; activity in the eight wells was then averaged. The results are indicated in the table entitled “Table ABC: Biological Results” (See Table Section).

[4] = 50 μg/cm^2 on artificial diet, second instar larvae, 25° C., five to seven days, average of eight wells

SMILES	YFM % Control (or Mortality) rating [1]	mortality at 50 µg/cm2 [2, 4] [%]	mortality at 50 µg/cm2 [3, 4] [%]	mortality at 50 µg/cm2 [2] [%]	mortality at 50 µg/cm2 [3] [%]
N#CC1(NC(=O)c2cc(NC(=O)[C@H]3[C@H](c4ccc(C(F)F)c(Cl)c4)C3(Cl)Cl)ccc2Cl)CC1 (relative stereo) [Molecule F89, trans-2-Chloro-N-(1-cyanocyclopropyl)-5-(2,2-dichloro-3-(3-chloro-4-(difluoromethyl)phenyl)cyclopropane-1-carboxamido)benzamide]	A (80-100)	50 to 100	50 to 100	–	–
O=C(NC1CC(F)(F)C1)c1cc(NC(=O)[C@H]2[C@H](c3ccc(Cl)c(F)c3)C2(Cl)Cl)ccc1Cl (relative stereo) [PF6, trans-2-Chloro-5-(2,2-dichloro-3-(4-chloro-3-fluorophenyl)cyclopropane-1-carboxamido)-N-(3,3-difluorocyclobutyl)benzamide]	D (No activity noticed in this bioassay)	50 to 100	50 to 100	–	–
COC(=O)C1(NC(=O)c2cc(NC(=O)[C@H]3[C@H](c4cc(Cl)cc(Cl)c4)C3(Cl)Cl)ccc2Cl)CCCC1 (relative stereo) [PF33, trans-Methyl 1-(2-chloro-5-(2,2-dichloro-3-(3,5-dichlorophenyl)cyclopropane-carboxamido)benzamido)cyclopentanecarboxylate]	D (No activity noticed in this bioassay)	0 to 50	50 to 100	–	–
O=C(NN1CCN(CC(F)(F)F)C1=O)c1cc(NC(=O)C2C(c3cc(Cl)cc(Cl)c3)C2(Cl)Cl)ccc1Cl (stereo not drawn) [PF44, trans-2-Chloro-5-(2,2-dichloro-3-(3,5-dichlorophenyl)cyclopropane-1-carbox-amido)-N-(2-oxo-3-(2,2,2-trifluoroethyl)imidazolidin-1-yl)benzamide]	A (80-100)	50 to 100	50 to 100	–	–
N#CC1(NC(=O)c2cc(NC(=O)[C@@H]3[C@@H](c4cc(Cl)c(Cl)c(Cl)c4)C3(Cl)Cl)ccc2Cl)CC1 [Molecule F64, 2-Chloro-N-(1-cyanocyclopropyl)-5-((1S,3S)-2,2-dichloro-3-(3,4,5-trichloro-phenyl)cyclopropane-1-carboxamido)benzamide]	A (80-100)	50 to 100	50 to 100	–	–
COc1cc([C@H]2[C@H](C(=O)Nc3ccc(Cl)c(C(=O)NC4(C#N)CC4)c3)C2(Cl)Cl)cc(F)c1Br (relative stereo) [Molecule F83, trans-5-(3-(4-Bromo-3-fluoro-5-methoxyphenyl)-2,2-dichlorocyclopropane-1-carboxamido)-2-chloro-N-(1-cyanocyclopropyl)benzamide]	A (80-100)	50 to 100	50 to 100	–	–
O=C1CCC(NC(=O)c2cc(NC(=O)[C@H]3[C@H](c4ccc(F)c(Cl)c4)C3(Cl)Cl)ccc2Cl)CC1 (relative stereo) [Molecule F81, trans-2-Chloro-5-(2,2-dichloro-3-(3-chloro-4-fluorophenyl)cyclopropane-1-carboxamido)-N-(4-oxocyclohexyl)benzamide]	A (80-100)	50 to 100	50 to 100	–	–
N#CC1(NC(=O)c2cc(NC(=O)[C@H]3[C@H](c4ccc(Br)c(Cl)c4)C3(Cl)Cl)ccc2Cl)CC1 (relative stereo) [Molecule F66, trans-5-(3-(4-bromo-3-chlorophenyl)-2,2-dichlorocyclopropane-1-carboxamido)-2-chloro-N-(1-cyanocyclopropyl)benzamide]	A (80-100)	50 to 100	50 to 100	–	–
O=C(NC1CC[S+]([O-])C1)c1cc(NC(=O)[C@H]2[C@H](c3cc(Cl)c(Cl)c(Cl)c3)C2(Cl)Cl)ccc1Cl (relative stereo) [PF18, trans-2-chloro-5-(2,2-dichloro-3-(3,4,5-trichloro-phenyl)cyclopropane-1-carboxamido)-N-(1-oxidotetrahydrothiophen-3-yl)-benzamide]	A (80-100)	50 to 100	50 to 100	–	–
Cc1cc([C@H]2[C@H](C(=O)Nc3ccc(Cl)c(C(=O)NC4(C#N)CC4)c3)C2(Cl)Cl)cc(Cl)c1Cl (relative stereo) [Molecule F51, trans-2-Chloro-N-(1-cyanocyclopropyl)-5-(2,2-dichloro-3-(3,4-dichloro-5-methylphenyl)cyclopropanecarboxamido)benzamide]	D (No activity noticed in this bioassay)	50 to 100	50 to 100	–	–
O=C(NC1CCC1)c1cc(NC(=O)C2C(c3cc(Cl)c(Cl)c(Cl)c3)C2(Cl)Cl)ccc1Cl (stereo not drawn) [Molecule F42, trans-2-Chloro-N-cyclobutyl-5-(2,2-dichloro-3-(3,4-trichlorophenyl)cyclopropanecarboxamido)benzamide]	D (No activity noticed in this bioassay)	50 to 100	50 to 100	–	–
N#CC1(NC(=O)c2cc(NC(=O)C3C(c4cc(Cl)cc(Cl)c4)C3(Cl)Br)ccc2Cl)CC1 (stereo not drawn) [Molecule F72]	D (No activity noticed in this bioassay)	–	–	50 to 100	50 to 100
Cc1cc(Cl)cc([C@H]2[C@H](C(=O)Nc3ccc(Cl)c(C(=O)NC4CC(F)(F)C4)c3)C2(Cl)Cl)c1 (relative stereo) [Molecule F46, trans-2-Chloro-5-(2,2-dichloro-3-(3-chloro-5-methylphenyl)cyclopropanecarboxamido)-N-(3,3-difluorocyclobutyl)benzamide]	D (No activity noticed in this bioassay)	50 to 100	50 to 100	–	–
Cc1c(Cl)cc([C@H]2[C@H](C(=O)Nc3ccc(Cl)c(C(=O)NC4CC(F)(F)C4)c3)C2(Cl)Cl)cc1Cl (relative stereo) [Molecule F48, trans-2-Chloro-5-(2,2-dichloro-3-(3,5-dichloro-4-methylphenyl)cyclopropanecarboxamido)-N-(3,3-difluorocyclobutyl)benzamide]	A (80-100)	50 to 100	50 to 100	–	–
N#CC1(NC(=O)c2cc(NC(=O)[C@H]3[C@H](c4cc(F)c(Br)c(F)c4)C3(Cl)Cl)ccc2Cl)CC1 (relative stereo) [Molecule F82, trans-5-(3-(4-Bromo-3,5-difluorophenyl)-2,2-dichlorocyclopropane-1-carboxamido)-2-chloro-N-(1-cyanocyclopropyl)benzamide]	A (80-100)	50 to 100	50 to 100	–	–
N#CC1(NC(=O)c2cc(NC(=O)[C@H]3[C@H](c4cc(Cl)c(Cl)c(Cl)c4)C3(Cl)Cl)ccc2Cl)CC1 [Molecule F63, 2-Chloro-N-(1-cyanocyclopropyl)-5-((1R,3R)-2,2-dichloro-3-(3,4,5-trichloro-phenyl)cyclopropane-1-carboxamido)benzamide]	A (80-100)	50 to 100	50 to 100	–	–
O=C(NC1CC(F)(F)C1)c1cc(NC(=O)[C@H]2[C@H](c3ccc(C(F)(F)F)cc3)C2(Cl)Cl)ccc1Cl (relative stereo) [Molecule F22, trans-2-Chloro-5-(2,2-dichloro-3-(4-(trifluoromethyl)phenyl)cyclopropanecarboxamido)-N-(3,3-difluorocyclobutyl)benzamide]	A (80-100)	50 to 100	50 to 100	–	–
